According to ChEMBL document CHEMBL1126991, “Isatin oximes - A novel series of bioavailable non-NMDA antagonists” (Bioorg Med Chem Lett, 1993):

Legend:
Mus musculus [1] = species: Mus musculus; assay: Tested for the [Ca2+] i induced elevation using cultured mouse cortical neurons, exposed to 50 uM NMDA for 4 minutes; assay type: functional
Rattus norvegicus [2] = species: Rattus norvegicus; assay: Tested for the ability to inhibit NMDA (20 uM) induced depolarizations in rat cortical wedge preparation; assay type: functional
[3] = target: Glutamate receptor ionotropic, AMPA (Rattus norvegicus, UniProt P19490+P19491+P19492+P19493); assay: Tested for the inhibition of binding of [3H]AMPA radioligand to Ionotropic glutamate receptor AMPA to cortical membranes from rat brain
[4] = target: Glutamate receptor ionotropic, kainate
Description: Tested for the inhibition of binding of [3H]kainate radioligand to Ionotropic glutamate receptor kainate of cortical membranes from rat brain

Mus musculus [5] = species: Mus musculus; assay: Tested for the effective dosage required for the protection against AMPA induced seizures; assay type: functional
Mus musculus [6] = species: Mus musculus; assay: Tested for the [Ca2+] i induced elevation using cultured mouse cortical neurons, exposed to 5 uM AMPA for 4 minutes; assay type: functional
Rattus norvegicus [7] = species: Rattus norvegicus; assay: Tested for the ability to inhibit AMPA (5 uM) induced depolarizations in rat cortical wedge preparation; assay type: functional

O=Nc1c(O)[nH]c2c3c(c([N+](=O)[O-])cc12)CCCC3
IC50 (Mus musculus [1]): > 30 µM | IC50 (Rattus norvegicus [2]): > 30 µM | IC50 [3]: 8.1 µM | IC50 [4]: > 30 µM | ED50 (Mus musculus [5]): > 30 mg/kg | IC50 (Mus musculus [6]): > 30 µM | IC50 (Rattus norvegicus [7]): > 30 µM

NS(=O)(=O)c1cccc2c1c([N+](=O)[O-])cc1nc(O)c(O)nc12 [NBQX]
IC50 (Mus musculus [1]): > 30 µM | IC50 (Rattus norvegicus [2]): > 30 µM | ED50 (Mus musculus [5]): 10 mg/kg | IC50 (Mus musculus [6]): 0.3 µM | IC50 (Rattus norvegicus [7]): 0.3 µM

CN(C)S(=O)(=O)c1cc2c(N=O)c(O)[nH]c2c2c1CCCC2
IC50 (Mus musculus [1]): > 30 µM | IC50 (Rattus norvegicus [2]): > 30 µM | IC50 [3]: 1.8 µM | IC50 [4]: 27 µM | ED50 (Mus musculus [5]): 3 mg/kg | IC50 (Mus musculus [6]): 5.4 µM | IC50 (Rattus norvegicus [7]): 3.5 µM

N#Cc1cc2c(cc1[N+](=O)[O-])=NC(=O)C(=O)N=2
ED50 (Mus musculus [5]): 10 mg/kg

NS(=O)(=O)c1cc2c(N=O)c(O)[nH]c2c2c1CCCC2
IC50 (Mus musculus [1]): > 30 µM | IC50 (Rattus norvegicus [2]): > 30 µM | IC50 [3]: 2.8 µM | IC50 [4]: 24.5 µM | ED50 (Mus musculus [5]): > 30 mg/kg | IC50 (Mus musculus [6]): 3.5 µM | IC50 (Rattus norvegicus [7]): 2.5 µM

O=C1Nc2c(ccc3c2CCCC3)/C1=N/O
IC50 [3]: > 30 µM | IC50 [4]: > 30 µM | ED50 (Mus musculus [5]): > 30 mg/kg

CNS(=O)(=O)c1cc2c(N=O)c(O)[nH]c2c2c1CCCC2
IC50 (Mus musculus [1]): > 30 µM | IC50 (Rattus norvegicus [2]): > 30 µM | IC50 [3]: 2.8 µM | IC50 [4]: 30 µM | ED50 (Mus musculus [5]): 30 mg/kg | IC50 (Mus musculus [6]): 11 µM | IC50 (Rattus norvegicus [7]): 5.2 µM
